Source: US20090221819A1, “FLUORESCENT COMPOUNDS AND USE OF SAID COMPOUNDS IN MULTIPHOTON METHODS OR DEVICES” (priority 2005, published 2009)

Tests used:
Format in all cases: physicochemical
[1] = absorption and photoluminescence characteristics (absorption and fluorescence emission spectra, quantum efficiency, lifetime); conditions: in toluene; for Φ, fluorescence quantum efficiency: determined with respect to fluorescein in NaOH 0.1N
Experimental: The absorption and photoluminescence characteristics of the 4 compounds of which the syntheses are described above were evaluated.
λabs represents the maximum absorption wavelength of the compound,
λem represents its maximum emission wavelength,
(§1) Φ represents its fluorescence quantum efficiency, determined with respect to the fluorescein in NaOH 0.1N, σ2 represents its effective TPA cross-section (in GM, with 1 GM=10^−50 cm^4.s.photon^−1); the TPEF measurements were performed with a titanium-sapphire laser in locked mode generating pulses of ˜80 fs at 80 MHz, by calibrating with fluorescein),
τ represents its fluorescence lifetime (also called the fluorescent decrease time).

[2] = two-photon absorption (TPA) cross-sections determined by two-photon excitation fluorescence (TPEF); conditions: for σ2, effective TPA cross-section at 700 nm / σ2, effective TPA cross-section at 990 nm / σ2, effective TPA cross-section at 750 nm: in toluene; for σ2, effective TPA cross-section at 700 nm / σ2, effective TPA cross-section at 990 nm: 10^−4 M
Experimental: The TPA spectra of the […] synthesized compounds (LP42, LP52, CL64, CL108, MC237 and MC263) as well as the reference boron dipyrromethene CL76 were also determined in the near-infrared ([…]) by studying their two-photon excitation fluorescence (TPEF), and are shown in FIG. 9.
The measurements were taken in toluene solutions of 10^−4 M, using a titanium-sapphire laser in locked mode generating pulses of ˜80 fs at 80 MHz.
The quadratic dependence of the fluorescence intensity with the excitation intensity was verified for each point of measurement. The calibration is done with respect to the effective TPEF cross-sections of the fluorescein in water (pH=11), which were determined absolutely in the former literature in the range of 690-1000 nm.
This method provides access to the effective TPEF cross-sections (σ2φ), from which the corresponding effective TPA cross-sections (σ2) are deduced. The data in the literature for compound PM556 are added for comparison.
as §1

water solubility = experiment: water solubility

Molecule	ε, molar extinction coefficient [1] [M⁻¹ cm⁻¹]	λabs, maximum absorption wavelength [1] [nm]	λem, maximum emission wavelength [1] [nm]	τ, fluorescence lifetime [1] [ns]	Φ, fluorescence quantum efficiency [1]	effective TPA cross-section relative to model CL76 at 700 nm ([2]; ratio to CL76) [times]	σ2, effective TPA cross-section at 700 nm [2] [GM]	σ2, effective TPA cross-section at 990 nm [2] [GM]	effective TPA cross-section relative to model CL76 at 990 nm ([2]; ratio to CL76) [times]	effective TPA cross-section relative to model CL76 at 750 nm ([2]; at 750 nm, ratio to CL76)	σ2, effective TPA cross-section at 750 nm ([2]; at 750 nm) [GM]	water solubility (water solubility)
CCC1=C(C)C2=C(c3ccc(C#Cc4ccc(N(c5ccc(C#Cc6ccc(C7=C8C(C)=C(CC)C(C)=[N+]8[B-](F)(F)n8c(C)c(CC)c(C)c87)cc6)cc5)c5ccc(C#Cc6ccc(C7=C8C(C)=C(CC)C(C)=[N+]8[B-](F)(F)n8c(C)c(CC)c(C)c87)cc6)cc5)cc4)cc3)c3c(C)c(CC)c(C)n3[B-](F)(F)[N+]2=C1C [CL64]	221700	528	543	4.02	0.93	9	190	45	–	–	–	–
CCC1=C(C)C2=C(c3ccc(-c4ccc(C5=C6C(C)=C(CC)C(C)=[N+]6[B-](F)(F)n6c(C)c(CC)c(C)c65)cc4)cc3)c3c(C)c(CC)c(C)n3[B-](F)(F)[N+]2=C1C [LP42, tetrafluoro[1-[2,2′-[(1,1′-biphenyl)-4,4′-diylbis[[4-ethyl-3,5-dimethyl-2H-pyrrol-2-ylidene-]methylene]]bis[4-ethyl-3,5-dimethyl-1H-pyrrolato]]]diboron]	161900	527	542	4.76	0.72	3	57	48	2.5	–	–	–
CCC1=C(C)C2=C(c3ccc(-c4cc(-c5ccc(C6=C7C(C)=C(CC)C(C)=[N+]7[B-](F)(F)n7c(C)c(CC)c(C)c76)cc5)cc(-c5ccc(C6=C7C(C)=C(CC)C(C)=[N+]7[B-](F)(F)n7c(C)c(CC)c(C)c76)cc5)c4)cc3)c3c(C)c(CC)c(C)n3[B-](F)(F)[N+]2=C1C [LP52, hexafluoro[μ3-[2,2′2″-[1,3,5-benzenetriyltris[4,1-phenylene[[4-ethyl-3,5-dimethyl-2H-pyrrol-2-ylidene]methylene]]tris[4-ethyl-3,5-dimethyl-1H-pyrrolato]]]]triboron]	244300	527	542	4.78	0.69	4	82	75	3.75	–	–	–
CCC1=C(C)C2=C(c3ccc(C#Cc4ccc(-c5cc(-c6ccc(C#Cc7ccc(C8=C9C(C)=C(CC)C(C)=[N+]9[B-](F)(F)n9c(C)c(CC)c(C)c98)cc7)cc6)cc(-c6ccc(C#Cc7ccc(C8=C9C(C)=C(CC)C(C)=[N+]9[B-](F)(F)n9c(C)c(CC)c(C)c98)cc7)cc6)c5)cc4)cc3)c3c(C)c(CC)c(C)n3[B-](F)(F)[N+]2=C1C [MC237]	216400	528	544	3.95	0.89	4	93	34	–	–	–	–
CCC1=C(C)C2=C(c3ccc(-c4cn(-c5ccc(C#Cc6ccc(N(c7ccc(C#Cc8ccc(-n9cc(-c%10ccc(C%11=C%12C(C)=C(CC)C(C)=[N+]%12[B-](F)(F)n%12c(C)c(CC)c(C)c%12%11)cc%10)nn9)cc8)cc7)c7ccc(C#Cc8ccc(-n9cc(-c%10ccc(C%11=C%12C(C)=C(CC)C(C)=[N+]%12[B-](F)(F)n%12c(C)c(CC)c(C)c%12%11)cc%10)nn9)cc8)cc7)cc6)cc5)nn4)cc3)c3c(C)c(CC)c(C)n3[B-](F)(F)[N+]2=C1C [MC263]	211100	528	542	4.36	1	–	185	40	–	18	270	–
CC1=C(S(=O)(=O)[O-])C(C)=[N+]2C1=C(c1ccc(C#Cc3ccc(-c4cc(-c5ccc(C#Cc6ccc(C7=C8C(C)=C(S(=O)(=O)[O-])C(C)=[N+]8[B-](F)(F)n8c(C)c(S(=O)(=O)[O-])c(C)c87)cc6)cc5)cc(-c5ccc(C#Cc6ccc(C7=C8C(C)=C(S(=O)(=O)[O-])C(C)=[N+]8[B-](F)(F)n8c(C)c(S(=O)(=O)[O-])c(C)c87)cc6)cc5)c4)cc3)cc1)c1c(C)c(S(=O)(=O)[O-])c(C)n1[B-]2(F)F.[Na+].[Na+].[Na+].[Na+].[Na+].[Na+] [MC297]	–	–	–	–	–	–	–	–	–	–	–	perfectly water-soluble
|4-ethyl-2-|(4-ethyl-3,5-dimethyl-2H-pyrrol-2-ylidene)phenyl methyl|-3,5-dimethyl-1H-pyrrolato|difluoroboron [CL76, reference compound]	76180	527	539	–	0.75	–	20	20	–	–	15	–
